Data: US20170158636A1, “FUNCTIONALISED AND SUBSTITUTED CARBAZOLES AS ANTI-CANCER AGENTS” (Novogen Ltd., priority 2014, published 2017)

How the values were obtained:
Type in all cases: cell-based
[1] = test system: actin cytoskeleton in SK-N-SH neuroblastoma cells; assay: Microfilament disruption assay (phalloidin staining, linear feature quantitation); settings: 0-40 μM, 24 hours post treatment
Description: FIG. 1: Imaging and quantitation of actin filaments in SK-N-SH neuroblastoma cells treated with compound (A) 1007, (B) 1013 and (C) 1016. Cells were stained with 488-Atto-Phallodin and DAPI to visualize the actin filament bundles and the nucleus, respectively. Shown in the top panel is a representative gray scale immunofluorescent image from control (vehicle alone), 5 μM and 10 μM treated cells. […] The coloured lines indicate the detected actin filaments. Also shown is the quantitation of cell number, filament number/cell and filament number/cell area (μM^2). Statistical analysis was performed using a one way ANNOVA-multiple comparison where each drug treated group was compared to the control. ****p<0.0001, […].
The ability of compounds 1007, 1013 and 1016 to disrupt the actin cytoskeleton was assessed in vitro using the microfilament disruption assay (FIG. 1).
Briefly, SK-N-SH neuroblastoma cells were seeded at 1800 cells/well in a 384 Perkin Elmer High Content Imaging “Cell Carrier” plate and left to plate down 24 hours prior to treatment. Cells were then treated with 0-40 μM of the test compounds (1:2 serial dilution in a 10 point dose response). 24 hours post treatment, cells were fixed with 4% w/v paraformaldehyde (PBS), permeabilized with Triton-X-100 and stained with 488-Atto-Phallodin and DAPI to visualize the actin filament bundles and the nucleus respectively. Single plane images were obtained on the Perkin Elmer Opera confocal microscope using a 20× objective. Twelve fields of view per condition (representing approximately 300-800 cells) were imaged. Images were then exported and changes in the organization and numbers of actin filaments within the cell were quantitated using a linear feature detection algorithm developed by CSIRO (Vindin et al. 2014). This algorithm detects the “ridge lines” or “peaks” in local pixel intensity in the cell image. It is these “ridge lines” that correspond to actin filament bundles and allow us to quantitate the number of filaments per cell.

[2] = test system: Tpm3.1-containing actin filaments in SK-N-SH neuroblastoma cells; assay: Disruption of Tpm3.1-containing actin filaments (γ9d staining); settings: SK-N-SH cells, 0, 5 and 7.5 μM, 48 hours post treatment
Description: FIG. 2: Imaging and quantitation of Tpm3.1-containing actin filaments in SK-N-SH neuroblastoma cells treated with compound (A) 1007, (B) 1013 and (C) 1016. Cells were stained with γ9d (sheep polycolonal, 1:100) followed by 488-conjugated secondary (1:1000) and DAPI to visualize the Tpm3.1 containing filament bundles and the nucleus, respectively. Shown in the top panel is a representative gray scale immunofluorescent image from control (vehicle alone), 5 μM and 7.5 μM treated cells. […] The coloured lines indicate the detected Tpm3.1 containing actin filaments. Also shown is the quantitation of cell number, Tpm3.1 filament number/cell and Tpm3.1 filament number/cell area (μM^2). Statistical analysis was performed using a one way ANNOVA-multiple comparison where each drug treated group was compared to the control. ****p<0.0001.
Another assay was conducted to assess the ability of compounds 1007, 1013 and 1016 to specifically disrupt actin filaments containing Tpm3.1 (FIG. 2). Briefly, SK-N-SH neuroblastoma cells were seeded at 2×10^4 cells/mL in a 10 cm tissue culture plate and left to plate down 24 hours prior to treatment. Cells were then treated with 0, 5 and 7.5 μM of the test compounds. 48 hours post treatment, cells were fixed with 4% w/v paraformaldehyde (PBS), permeabilized with Triton-X-100 and stained with γ9d (sheep polycolonal, 1:100) followed by 488-conjugated secondary (1:1000) and DAPI to visualize the Tpm3.1 containing filament bundles and the nucleus, respectively. Single plane images were obtained on the Zeiss epifluorescent Axioscope microscope using a 20× objective. Six fields of view per condition were imaged. Images were then exported and the linear features (actin filaments containing Tpm3.1) were then quantitated using the linear feature detection algorithm described above.

IL-6 = assay: Cytokine release from LPS-stimulated PBMCs (HTRF); settings: PBMC, human PBMCs
Description: (§1) The ability of compounds 1004, 1007 and 1018 to inhibit the release of cytokines TNF-α, IFN-γ, IL-6, IL-21, IL-17A and IL-23 was evaluated in vitro (Tables 2 and 3). Briefly, human peripheral blood mononuclear cells (PBMCs) were isolated from human peripheral blood by Histopaque density gradient centrifugation. The freshly isolated PBMCs were seeded at 50,000 cells/well in a 96-well half area plate. PBMCs were dosed with the test compounds (at 10 μM, 1 μM and 0.1 μM) and then incubated at 37° C. and 5% CO2 for 2 hours. To stimulate release of the cytokines IFN-γ, IL-21, IL-17A and IL-23, the PBMCs were treated with 50 ng/mL of phorbol 12-myristate 13-acetate (PMA) and 1 μg/mL of ionomycin and to stimulate the release of TNF-α and IL-6, PBMCs were treated with 100 ng/mL of lipopolysaccharide (LPS) from gram-negative bacteria. The PBMCs were then incubated at 37° C. and 5% CO2 for a further 6 hours and the cell supernatant was collected and a Homogenous Time Resolved Fluorescence (HTRF) assay was carried out following the manufacturer's instructions. Cytokine release from the PBMCs was captured using a Perkin Elmer ENVISION 2104 microplate reader set at 615 nm and 665 nm respectively.

TNF-α = assay: Cytokine release from LPS-stimulated PBMCs (HTRF); settings: PBMC, human PBMCs
Description: as §1

IFN-γ = assay: Cytokine release from PMA/ionomycin-stimulated PBMCs (HTRF); settings: PBMC, human PBMCs, PMA and ionomycin
Description: as §1

IL-17A = assay: as above; settings: PBMC, human PBMCs, PMA and ionomycin
Description: as §1

IL-21 = assay: as above; settings: PBMC, human PBMCs, PMA and ionomycin
Description: as §1

IL-23 = assay: as above; settings: PBMC, human PBMCs, PMA and ionomycin
Description: as §1

Question: How did the “disruption of the actin cytoskeleton” value [1] turn out when `CCN(CC)CCCn1c2ccccc2c2cc(C(=O)N3CCN(CCc4ccc(F)cc4)CC3)ccc21` [Compound 1007, (9-(3-(diethylamino)propyl)-9H-carbazol-3-yl)(4-(4-fluorophenethyl)piperazin-1-yl)methanone] was run?
Answer: Its value is “disrupt the actin cytoskeleton in a dose-dependent manner”.

Question: And the “disruption of Tpm3.1-containing actin filaments” value [2]?
Answer: Its value is “disrupt Tpm3.1-containing actin filaments in a dose-dependent manner”.

Question: And the inhibition at 0.1 µM (IL-6; 0.1 μM)?
Answer: The inhibition at 0.1 µM was 38%.

Question: What about the inhibition at 1 µM (IL-6; 1 μM) of the same compound?
Answer: Its inhibition at 1 µM is 59%.

Question: And the inhibition at 10 µM (IL-6; 10 μM)?
Answer: Its inhibition at 10 µM is 89%.

Question: What about the inhibition at 0.1 µM (TNF-α; 0.1 μM) of the same compound?
Answer: Its inhibition at 0.1 µM is 43%.

Question: And the inhibition at 1 µM (TNF-α; 1 μM)?
Answer: Its inhibition at 1 µM is 60%.

Question: What about the inhibition at 10 µM (TNF-α; 10 μM) of the same compound?
Answer: The inhibition at 10 µM was 82%.

Question: And the inhibition at 0.1 µM (IFN-γ; 0.1 μM)?
Answer: The inhibition at 0.1 µM was 8%.

Question: And the inhibition at 1 µM (IFN-γ; 1 μM)?
Answer: The inhibition at 1 µM was 53%.

Question: What about the inhibition at 10 µM (IFN-γ; 10 μM) of the same compound?
Answer: The inhibition at 10 µM was 90%.

Question: What about the inhibition at 0.1 µM (IL-17A; 0.1 μM) of the same compound?
Answer: Its inhibition at 0.1 µM is -4%.

Question: And the inhibition at 1 µM (IL-17A; 1 μM)?
Answer: The inhibition at 1 µM was 22%.

Question: And the inhibition at 10 µM (IL-17A; 10 μM)?
Answer: The inhibition at 10 µM was 59%.

Question: And the inhibition at 0.1 µM (IL-21; 0.1 μM)?
Answer: Its inhibition at 0.1 µM is -7%.

Question: What about the inhibition at 1 µM (IL-21; 1 μM) of the same compound?
Answer: Its inhibition at 1 µM is -9%.

Question: And the inhibition at 10 µM (IL-21; 10 μM)?
Answer: The inhibition at 10 µM was -4%.

Question: And the inhibition at 0.1 µM (IL-23; 0.1 μM)?
Answer: The inhibition at 0.1 µM was -15%.

Question: And the inhibition at 1 µM (IL-23; 1 μM)?
Answer: The inhibition at 1 µM was -11%.

Question: What about the inhibition at 10 µM (IL-23; 10 μM) of the same compound?
Answer: The inhibition at 10 µM was -3%.
